The test system of one data set is MEK1. Description: Western blot of ERK1/2 phosphorylation induced by MEK1 (MEK1-WT / MEK1-DD). The data set is classed as cell-based, human. The procedure:
(§1) HEK293SL cells (10^5 cells per well) were seeded in a poly-L-lysine-coated six-well plate and transiently transfected with 3 μg Flag-AT1R, HA-B2R or HA-β2AR and/or 500 ng Flag-MEK1-WT, Flag-MEK1-DD, Flag-BRAF-WT, Flag-BRAF-V600E, Flag-K-Ras-WT, Flag-K-Ras-G12V, HA-ARF6-WT, or HA-ARF6-T27N. Gαq/11 KO and βarr1/2 KO cells were seeded onto 100 mm dishes at a density of 10^6 cells per dish. Next day, cells were transfected with 3 μg AT1R alone or along with 500 ng of β-arrestin2 using PEI. After 18 h of transfection, cells were detached and re-seeded onto poly-L-lysine coated 12-well plates (~1.5–2 × 10^5cells/well) for subsequent experiments. Forty-eight hours post transfection, in a 37 °C water bath, cells were serum-starved for 30 min, pretreated with DMSO (0.1%) or compound 21/Rasarfin (50 µM or at indicated concentrations) for 30 min, then stimulated or not with the indicated ligand [AngII (1 µM), BK (1 µM), Iso (10 µM) or EGF (100 ng/ml)] at indicated times. Cells were put on ice, washed with PBS and solubilized in 2x laemmli buffer (250 mM Tris–HCl pH 6.8, 2% SDS (w/v), 10% glycerol (v/v), 0.01% bromophenol blue (w/v) and 5% β-mercaptoethanol (v/v)) by heating at 65 °C for 15 min. Lysates were resolved on 10 or 14% SDS-PAGE, transferred to nitrocellulose membranes and immunoblotted for p-ERK1/2, ERK1/2, p-Akt, Akt, HA, Myc, β-actin or FLAG. ImageLab 5.2 software was used to quantify the digital blots as fold of the phosphorylated protein over total protein, which were then normalized as indicated in the figure legends. Uncropped immunoblots are provided in the Source Data file.
A general note: A western blot detects proteins with antibodies after separation by electrophoresis.

In data set [1] the test system is ERK1/2 activation by AT1R. Briefly: Western blot of AT1R-mediated ERK1/2 phosphorylation. The data set is classed as cell-based, human. To be noted: 50 μM. The procedure: as §1
A further data set concerns PI3K/Akt. Briefly: PI3K/Akt BRET sensor (Akt (PH)-RlucII / rGFP-CAAX), EGFR-mediated. Type of data set: cell-based, human. The procedure:
(§2) HEK293SL cells were seeded at a density of 7.5 × 10^5 cells per 100-mm dish and 24 h later, transiently transfected as such. For receptor internalization experiments, cells were transfected with 0.12 μg AT1R-RlucII, B2R-RlucII, or β2AR-RlucII and 0.48 μg of either rGFP-CAAX (to assess removal from the PM) or rGFP-FYVE (to assess accumulation in the endosomes). For β-arrestin recruitment assays, cells were transfected with 0.48 μg of receptor-YFP along with 0.12 μg of β-arrestin-RlucII. For β-arrestin/AP-2 binding experiments, cells were transfected with 1 μg Flag-AT1R, 1 μg β2-Adaptin-YFP, and 0.12 μg β-arrestin2-RlucII. For G protein activation, cells were transfected with 3 μg of sp-Flag-AT1R along with either 4.5 μg of the Gαq-polycistronic BRET sensor or 0.24 μg of the Gαi3-RlucII and 0.6 μg of GFP10-Gγ2 and Gβ1 sensors or 0.12 μg PKN-RBD-RlucII and 0.48 μg of rGFP-CAAX. For PKC activation, cells were transfected with 3 μg of sp-Flag-AT1R and 0.18 μg of the PKC sensor. For GTPase activation experiments, cells were transfected with 1 μg Flag-AT1R, 0.48 μg of rGFP-CAAX, and either 0.12 μg of GGA3-PBD-RlucII, PAK-CRIB-RlucII or Raf-RBD-RlucII. For biosensor validation experiments, cells were additionally transfected with 500 ng Flag-K-Ras-WT, Flag-K-Ras-G12V, Flag-K-Ras-SOS-CAAX, HA-ARF6-WT, HA-ARF6-T27N, Myc-Rac1-WT, Myc-Rac1-Q61L or Myc-Rac1-T17N. For PI3K/Akt activation experiments, cells were transfected with 0.48 μg of rGFP-CAAX and 0.12 μg of Akt (PH)-RlucII. After 18 h of transfection, the media was replaced and cells were divided for subsequent experiments. Cells were detached and seeded onto poly-L-ornithine-coated 96-well flat white bottom plates (BrandTech Scientific) at a density of 2.5 × 10^4 cells per well in media. The next day, cells were washed once with Tyrode’s buffer (140 mM NaCl, 2.7 mM KCl, 1 mM CaCl2, 12 mM NaHCO3, 5.6 mM D-glucose, 0.5 mM MgCl2, 0.37 mM NaH2PO4, 25 mM HEPES, pH 7.4) and left in Tyrode’s buffer. For kinetics of β-arrestin recruitment or β-arrestin binding to receptor and AP-2 experiments, cells were serum starved for 30 min, pretreated with 21 (50 µM) or Barbadin (100 µM) for 30 min, stimulated with 100 nM AngII or 1 µM BK and BRET signals were monitored at indicated times using a Victor X Light plate reader (PerkinElmer). Coelenterazine H (final concentration of 5 µM) was added 3–5 min prior to BRET measurements. Filter set was 460/80 nm and 535/30 nm for detecting the RlucII Renilla luciferase (donor) and YFP (acceptor) light emissions, respectively. The BRET ratio was determined by calculating the ratio of the light emitted by YFP over the light emitted by the RlucII. For G protein activation, cells were serum starved, pretreated with compounds for 30 min, stimulated with 100 nM AngII for 2 min (Gαq, Gαi3, and Rho sensors) or 5 min (PKC sensor). For the kinetics of GTPase and PI3K/Akt activation, cells were serum starved, pretreated with 21 (50 µM) or Wortmannin (200 nM) for 30 min, stimulated with ligand (100 nM AngII or 100 ng/ml EGF) and BRET signals were monitored at indicated times. For concentration-response curves, cells were serum-starved, pretreated with various concentrations of compounds for 30 min and stimulated with ligand (100 nM AngII, 1 µM BK, 10 µM Isoproterenol (Iso) or 100 ng/ml EGF) in Tyrode’s buffer for 30 min for receptor internalization, 10 min for ARF6, 2 min for Rac and Rho activation and 5 min for Ras activation and PI3K/Akt activation. BRET signals were monitored using a Synergy2 (BioTek) microplate reader and coelenterazine 400a (final concentrations of 5 µM) added 3–5 min prior to BRET measurements. Filter set was 410/80 nm and 515/30 nm for detecting the RlucII Renilla luciferase (donor) and rGFP/GFP10 (acceptor) light emissions, respectively. The BRET ratio was determined by calculating the ratio of the light emitted by rGFP/GFP10 over the light emitted by the RlucII.
Background: In BRET a luciferase serves as donor, and the signal depends on an acceptor being close.

A further data set has as its target T1, Gαq (Homo sapiens, UniProt P50148).
T1 construct: expressed in transfected cells; host or cells: HEK293SL
Briefly: Gαq BRET sensor, AT1R-mediated. The data set is classed as cell-based. The procedure: as §2, with “The next day, cells were washed once with Tyrode’s buffer (140 mM NaCl, 2.7 mM KCl, 1 mM CaCl2, 12 mM NaHCO3, 5.6 mM D-glucose, 0.5 mM MgCl2, 0.37 mM NaH2PO4, 25 mM HEPES, pH 7.4) and left in Tyrode’s buffer.” left out, “Coelenterazine H (final concentration of 5 µM) was added 3–5 min prior to BRET measurements. Filter set was 460/80 nm and 535/30 nm for detecting the RlucII Renilla luciferase (donor) and YFP (acceptor) light emissions, respectively.” left out, “For G protein activation, cells were serum starved, pretreated with compounds for 30 min, stimulated with 100 nM AngII for 2 min (Gαq, Gαi3, and Rho sensors) or 5 min (PKC sensor).” left out, “For concentration-response curves, cells were serum-starved, pretreated with various concentrations of compounds for 30 min and stimulated with ligand (100 nM AngII, 1 µM BK, 10 µM Isoproterenol (Iso) or 100 ng/ml EGF) in Tyrode’s buffer for 30 min for receptor internalization, 10 min for ARF6, 2 min for Rac and Rho activation and 5 min for Ras activation and PI3K/Akt activation.” left out, “Filter set was 410/80 nm and 515/30 nm for detecting the RlucII Renilla luciferase (donor) and rGFP/GFP10 (acceptor) light emissions, respectively.” left out

The next data set concerns A549 cells. Description: Cell viability assay (MTT), A549. Type of data set: cell-based, human. The note with it: Doxorubicin. The procedure:
(§3) MDA-MB-231 breast cancer cells and A549 lung carcinomas (1500 cells in 150 μl/well) were seeded overnight on a clear 96-well plate. Twenty-four hours later, the cells were treated with 0.1% DMSO, or different concentrations of Rasarfin (as indicated), or 10 µM of 21.4, 21.8 (MDA-MB-231 breast cancer cells) or Doxorubicin for the indicated times at 37 °C. At each time point, 10 μl of 5 mg/ml MTT was added to each well and the plates were incubated for an additional 4 h at 37 °C. The absorbance at 590 nm was measured by plate reader. Experiments were done in triplicate and repeated three times.

A further data set has as its system MDA-MB-231 cells. Briefly: Cell viability assay (MTT), MDA-MB-231. The data set is classed as cell-based, human. To be noted: for cell viability (MTT signal): S_Fig12f. The protocol:
as §3

Consider six compounds from article PMC8333425, “Discovery of a dual Ras and ARF6 inhibitor from a GPCR endocytosis screen” (Nature Communications, 2021).

Where “and” joins values, the source holds several entries; their conditions need not be identical. Equal values may be shown once. Numbered stars: 1 amine (or outer) side, 2 acyl side, 3 side chain; on linkers, the order of the positions; unused ones are H or OH. Bridge positions count the residues as written; N and C are the ends. Square brackets hold non-standard residues; d marks the D form. Peptide text beside a SMILES is read from it. * marks the point of attachment. Leu(3R-OH,Nα-propionyl) = CCC(=O)N[C@H](C(=O)*)[C@H](O)C(C)C; X1 = CC(C)[C@@H](O[*:3])[C@H](N[*:1])C(=O)[*:2]; NMeT = CN[C@H](C(=O)O)[C@@H](C)O; dPhLac = O=C(O)[C@H](O)Cc1ccccc1; NMeA = CN[C@@H](C)C(=O)O; NMeDha = C=C(NC)C(=O)O

T1 sequence (P50148 whole entry): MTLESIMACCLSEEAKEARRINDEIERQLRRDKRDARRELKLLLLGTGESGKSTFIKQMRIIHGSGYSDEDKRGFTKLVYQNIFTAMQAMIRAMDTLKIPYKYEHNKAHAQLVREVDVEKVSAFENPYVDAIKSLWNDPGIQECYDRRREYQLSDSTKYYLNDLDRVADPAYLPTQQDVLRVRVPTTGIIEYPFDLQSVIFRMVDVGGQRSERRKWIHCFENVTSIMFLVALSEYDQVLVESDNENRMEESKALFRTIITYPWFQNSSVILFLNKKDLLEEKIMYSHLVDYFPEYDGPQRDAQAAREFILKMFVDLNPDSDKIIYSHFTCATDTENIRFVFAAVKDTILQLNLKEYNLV
T1 sequence (P62873 whole entry partner): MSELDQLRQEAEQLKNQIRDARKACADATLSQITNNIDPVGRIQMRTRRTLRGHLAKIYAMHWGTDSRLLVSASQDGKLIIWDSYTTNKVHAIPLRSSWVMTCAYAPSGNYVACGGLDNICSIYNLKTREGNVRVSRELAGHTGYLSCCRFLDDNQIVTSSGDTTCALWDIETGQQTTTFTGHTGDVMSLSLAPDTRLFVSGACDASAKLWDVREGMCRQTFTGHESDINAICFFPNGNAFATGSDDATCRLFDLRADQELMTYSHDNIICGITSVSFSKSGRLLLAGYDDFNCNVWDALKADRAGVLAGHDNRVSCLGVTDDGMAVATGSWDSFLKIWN
T1 sequence (P63211 2-71 partner limits assumed): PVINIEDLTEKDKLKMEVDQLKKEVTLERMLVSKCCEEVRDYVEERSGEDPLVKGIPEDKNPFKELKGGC

Consider `O=C(NOCC1CC1)c1ccc(F)c(F)c1Nc1ccc(I)cc1Cl` [PD184352, reference compound], for which the “Predicted (LS) mean diff. DMSO vs. compound (Bonferroni's multiple comparisons test)” value is recorded as 3.803 in the data set on MEK1 (Flag-MEK1 DD), 0.8426 with MEK1 (Flag-MEK1 WT) and 0 in the data set with MEK1 (mock). The “ERK1/2 phosphorylation relative to mock (S_Fig.4c)” value with MEK1 (Flag-MEK1 WT) was 0.4899 and 0.8 and 0.4446; in the data set with MEK1 (mock), 1.

Regarding `CCC(=O)N1CCN(c2ccc(NC(=O)c3cc4ccccc4o3)cc2Cl)CC1` [Compound 21.2], the “inhibition of AT1R-mediated ERK1/2 (MAPK) activation (Fig. 8b)” value in data set [1] was “lost their ability to inhibit MAPK”.

In the case of `COC[C@H]1OC(=O)c2coc3c2[C@@]1(C)C1=C(C3=O)[C@@H]2CCC(=O)[C@@]2(C)C[C@H]1OC(C)=O` [Wortmannin, reference compound], the “EGF-promoted BRET” value in the data set on PI3K/Akt (Wortmannin-treated, Log [EGF] (ng/ml) -12) is recorded as 0.

As for EGF, the “EGF-promoted BRET” value is 0 in the data set on PI3K/Akt (EGF 100 ng/ml, time 0 min); 0.3827 and 0.39 with PI3K/Akt (EGF 100 ng/ml, time 1 min); 0.5443 and 0.5547 with PI3K/Akt (EGF 100 ng/ml, time 2 min); 0.521 and 0.605 with PI3K/Akt (EGF 100 ng/ml, time 3 min); 0.6008 and 0.512 and 0.5428 in the data set on PI3K/Akt (EGF 100 ng/ml, time 4 min); 0.5307 and 0.4867 and 0.5263 in the data set on PI3K/Akt (EGF 100 ng/ml, time 5 min).

Take `C=C1C(=O)N[C@@H](C)C(=O)N(C)[C@@H](C)C(=O)N[C@@H]([C@H](OC(=O)[C@@H](NC(=O)CC)[C@H](O)C(C)C)C(C)C)C(=O)N(C)[C@@H]([C@@H](C)OC)C(=O)O[C@H](C(C)C)[C@H](NC(C)=O)C(=O)O[C@H](Cc2ccccc2)C(=O)N1C` [UBO-QIC, reference compound] (Ac-[X1][dPhLac][NMeDha]A[NMeA][X1](Leu(3R-OH,Nα-propionyl))[NMeT](Me); ester 1-C): the “Gq BRET sensor signal (S_Fig.4b), single experiments” value at Gαq was 0.0505 and 0.06125 and 0.044.

Regarding `COc1cccc2c1C(=O)c1c(O)c3c(c(O)c1C2=O)C[C@@](O)(C(=O)CO)C[C@@H]3O[C@H]1C[C@H](N)[C@H](O)[C@H](C)O1` [Doxorubicin, reference compound], the “cell viability (MTT signal)” value is 0.213 and 0.2235 and 0.2068 in the data set on A549 cells (24h); 0.2026 and 0.1628 and 0.1313 in the data set with A549 cells (48h); 0.1331 and 0.1199 and 0.1728 with A549 cells (72h); 0.213 and 0.2235 and 0.2068 in the data set on MDA-MB-231 cells (24h); 0.2026 and 0.1628 and 0.1313 in the data set with MDA-MB-231 cells (48h); 0.1199 and 0.1728 and 0.1331 in the data set on MDA-MB-231 cells (72h). Moreover, the “MDA-MB-231 cell viability (MTT)” value in the data set with MDA-MB-231 cells (Doxorubicin 10 µM) was “potently killed cells”.
